These results are taken from US20070173493A1, “1-Oxadibenzo[e,h]azulenes for the treatment of central nervous system diseases and disorders” (Pliva-Istrazivacki Institut d.o.o., priority 2003, published 2007).

For one assay, the target named is T1, 5-HT2A receptor (Homo sapiens, UniProt P28223).
T1 construct: expressed in transfected cells; host or cells: CHO-K1 (alternatively human cortex tissue)
Briefly: radioligand binding assay for 5-HT2A receptor ([3H]-ketanserin competitive binding). The settings on record: human cortex or recombinant 5-HT2A receptor expressed in CHO-K1 cells. As for the experimental part:
(§1) The effect of the compounds of the present invention on the neurochemical steady state was determined by in vitro investigations such as a radionuclide-marked radioligand binding assay for 5-HT2A (Bonhaus D. W. Br. J. Pharmacol. 1995, 115:622; Saucier C. J. Neurochem. 1997, 68:1998) and 5-HT2C receptors (Wolf W. A. J. Neurochem. 1997, 69:1449), in vitro binding assay for the σ1 receptor (Thomson W. and Donn R. Arthritis Res. 2002, 4: 302-306) and by in vivo investigations in a tail suspension test (Vogel H. G. and Vogel W. H. Drug Discovery and Evaluation Pharmacological Assays, Springer 1997, 304), in amphetamine-induced hyperlocomotion in mice (Millan M. J. et al, 1998 J Pharmacol. Exp. Ther. 287: 167-186), in a forced swim test in mice (Porsolt R. D. et al. Arch. Int. Pharmacodyn. 1977, 229:327-336), in meta-chlorophenyl piperazine (m-CPP) test on rats (Drug Dev. Res. 1989, 18:119-144), and in apomorphine, tryptamine, norepinephrine (ATN) test in rats (Arch. […]
(§2) A small concentration of a radioligand having a great affinity for binding to a receptor was incubated with a tissue sample enriched with a certain receptor (1-5 mg of tissue) in a buffered medium (0.2-5 mL). […] When a binding balance was achieved, the receptors to which the radioligand was bound were separated from those to which said ligand was not bound, and the radioactivity of the receptor/radioligand complex was measured. […]

The target of a further assay is T2, 5-HT2C receptor (Homo sapiens, UniProt P28335).
T2 construct: expressed in transfected cells; host or cells: CHO-K1 (alternatively choroid plexus tissue)
T2 sequence (P28335 33-458): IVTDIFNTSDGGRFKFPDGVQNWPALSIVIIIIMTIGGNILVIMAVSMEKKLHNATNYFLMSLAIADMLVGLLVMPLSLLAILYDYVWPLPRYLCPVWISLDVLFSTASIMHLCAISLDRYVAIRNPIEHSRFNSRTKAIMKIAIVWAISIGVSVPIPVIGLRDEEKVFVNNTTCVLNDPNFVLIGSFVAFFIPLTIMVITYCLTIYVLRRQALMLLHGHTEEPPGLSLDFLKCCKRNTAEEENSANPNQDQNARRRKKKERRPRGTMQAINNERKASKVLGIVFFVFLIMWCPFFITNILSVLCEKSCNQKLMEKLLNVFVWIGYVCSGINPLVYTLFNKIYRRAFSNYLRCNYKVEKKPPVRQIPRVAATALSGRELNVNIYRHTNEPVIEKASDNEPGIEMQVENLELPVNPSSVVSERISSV
As to the kind of experiment: radioligand binding assay for 5-HT2C receptor ([3H]-mesulergine competitive binding). The settings on record: choroid plexus or recombinant 5-HT2C receptor expressed in CHO-K1 cells. As for the experimental part:
as §1, §2

T1 sequence (P28223 whole entry): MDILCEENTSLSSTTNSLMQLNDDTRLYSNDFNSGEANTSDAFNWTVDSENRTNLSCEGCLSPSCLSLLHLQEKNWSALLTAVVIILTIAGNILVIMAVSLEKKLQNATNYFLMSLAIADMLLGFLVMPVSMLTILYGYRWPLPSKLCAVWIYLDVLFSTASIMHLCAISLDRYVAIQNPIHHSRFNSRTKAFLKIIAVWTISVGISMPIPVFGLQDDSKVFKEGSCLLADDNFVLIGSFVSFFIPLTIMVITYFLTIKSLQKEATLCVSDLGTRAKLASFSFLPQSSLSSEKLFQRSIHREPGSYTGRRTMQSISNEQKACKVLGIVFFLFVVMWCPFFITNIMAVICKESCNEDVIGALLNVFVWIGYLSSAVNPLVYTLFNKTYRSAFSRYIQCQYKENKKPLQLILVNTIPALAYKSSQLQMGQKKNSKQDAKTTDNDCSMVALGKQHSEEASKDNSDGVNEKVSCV

In the case of `CN(C)CCOCc1cc2c(o1)-c1cc(Cl)ccc1Oc1ccccc1-2` [[2-(11-chloro-1,8-dioxa-dibenzo[e,h]azulen-2-ylmethoxy)-ethyl]-dimethyl-amine], the IC50 at 5-HT2A receptor (read-out: binding affinity to 5-HT2A serotonin receptor expressed as IC50 value) and at 5-HT2C receptor (read-out: binding affinity to 5-HT2C serotonin receptor expressed as IC50 value) was below 200 nM throughout. In addition, the Ki on 5-HT2A receptor (read-out: binding affinity to 5-HT2A serotonin receptor, Ki value) was below 100 nM; on 5-HT2C receptor (read-out: binding affinity to 5-HT2C serotonin receptor, Ki value) it was below 100 nM.

By IC50 is commonly meant the point on the concentration scale where inhibition reaches its midpoint. By Ki is commonly meant the dissociation constant of the complex between target and ligand, obtained from inhibition or displacement.
